Values of other authors, collected in patent US20220333071A1, “METHODS OF MAKING, EXPANDING AND PURIFYING MIDBRAIN DOPAMINERGIC PROGENITOR CELLS” (BrainXell, Inc., priority 2021, published 2022).

How the values were obtained:
[1] = test system: Wnt-mediated transcription; settings: read-out: IC50, inhibition of Wnt-mediated transcription
[2] = test system: rodent GSK3-β homologs
[3] = test system: BMP4-induced phosphorylation of Smads 1, 5 and 8; settings: HEK293 cells
[4] = target: KDR (VEGFR-2) (Homo sapiens, UniProt P35968)
[5] = test system: AMPK
[6] = target: ALK-1 (Homo sapiens, UniProt P37023); settings: in vitro kinase assays
[7] = target: ALK-3 (Homo sapiens, UniProt P36894); settings: in vitro kinase assays
[8] = target: T1, ALK5 (Homo sapiens, UniProt P36897)
T1 sequence (P36897 34-503): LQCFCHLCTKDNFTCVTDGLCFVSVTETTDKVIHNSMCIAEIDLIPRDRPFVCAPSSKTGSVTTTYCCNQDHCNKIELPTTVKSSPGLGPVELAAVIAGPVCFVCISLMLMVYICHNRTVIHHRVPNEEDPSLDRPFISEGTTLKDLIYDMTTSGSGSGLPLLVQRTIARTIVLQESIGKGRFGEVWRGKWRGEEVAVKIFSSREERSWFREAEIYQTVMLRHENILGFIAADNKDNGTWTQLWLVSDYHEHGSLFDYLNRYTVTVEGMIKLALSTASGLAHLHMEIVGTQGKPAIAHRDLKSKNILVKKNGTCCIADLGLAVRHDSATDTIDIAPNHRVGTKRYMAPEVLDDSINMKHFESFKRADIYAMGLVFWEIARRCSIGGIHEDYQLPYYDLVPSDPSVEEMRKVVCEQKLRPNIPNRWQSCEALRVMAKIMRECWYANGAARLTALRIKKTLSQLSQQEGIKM

[9] = target: PDGFRβ (Homo sapiens, UniProt P09619)
PDGFRβ, sequence (P09619 33-1106, species assumed): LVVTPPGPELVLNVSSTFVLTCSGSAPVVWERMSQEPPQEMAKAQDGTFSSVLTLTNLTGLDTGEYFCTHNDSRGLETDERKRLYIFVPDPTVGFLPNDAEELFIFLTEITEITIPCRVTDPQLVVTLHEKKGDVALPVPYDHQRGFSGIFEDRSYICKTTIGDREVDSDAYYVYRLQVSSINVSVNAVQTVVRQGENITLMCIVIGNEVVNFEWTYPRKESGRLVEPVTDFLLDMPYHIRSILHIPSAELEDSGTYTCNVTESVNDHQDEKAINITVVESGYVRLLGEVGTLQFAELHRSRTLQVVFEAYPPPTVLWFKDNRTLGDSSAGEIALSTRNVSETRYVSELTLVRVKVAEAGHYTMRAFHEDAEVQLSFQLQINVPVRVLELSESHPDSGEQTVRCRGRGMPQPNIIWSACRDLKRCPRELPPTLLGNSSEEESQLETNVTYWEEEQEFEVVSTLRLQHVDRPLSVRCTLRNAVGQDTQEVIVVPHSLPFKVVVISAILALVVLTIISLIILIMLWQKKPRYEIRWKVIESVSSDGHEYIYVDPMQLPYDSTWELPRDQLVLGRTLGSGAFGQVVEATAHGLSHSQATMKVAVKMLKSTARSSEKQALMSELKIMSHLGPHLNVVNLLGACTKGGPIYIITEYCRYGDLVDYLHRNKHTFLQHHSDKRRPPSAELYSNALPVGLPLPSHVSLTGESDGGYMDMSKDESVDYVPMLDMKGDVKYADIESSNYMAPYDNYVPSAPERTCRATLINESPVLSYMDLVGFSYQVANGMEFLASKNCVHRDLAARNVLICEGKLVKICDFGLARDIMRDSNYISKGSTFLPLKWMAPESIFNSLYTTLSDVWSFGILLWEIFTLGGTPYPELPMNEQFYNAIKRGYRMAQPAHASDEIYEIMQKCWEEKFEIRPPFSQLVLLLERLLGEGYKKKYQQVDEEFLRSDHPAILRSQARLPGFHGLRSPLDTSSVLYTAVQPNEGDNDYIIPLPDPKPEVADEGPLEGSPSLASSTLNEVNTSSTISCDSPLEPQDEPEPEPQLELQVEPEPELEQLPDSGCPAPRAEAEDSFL

KDR (VEGFR-2), sequence (P35968 20-1356, species assumed): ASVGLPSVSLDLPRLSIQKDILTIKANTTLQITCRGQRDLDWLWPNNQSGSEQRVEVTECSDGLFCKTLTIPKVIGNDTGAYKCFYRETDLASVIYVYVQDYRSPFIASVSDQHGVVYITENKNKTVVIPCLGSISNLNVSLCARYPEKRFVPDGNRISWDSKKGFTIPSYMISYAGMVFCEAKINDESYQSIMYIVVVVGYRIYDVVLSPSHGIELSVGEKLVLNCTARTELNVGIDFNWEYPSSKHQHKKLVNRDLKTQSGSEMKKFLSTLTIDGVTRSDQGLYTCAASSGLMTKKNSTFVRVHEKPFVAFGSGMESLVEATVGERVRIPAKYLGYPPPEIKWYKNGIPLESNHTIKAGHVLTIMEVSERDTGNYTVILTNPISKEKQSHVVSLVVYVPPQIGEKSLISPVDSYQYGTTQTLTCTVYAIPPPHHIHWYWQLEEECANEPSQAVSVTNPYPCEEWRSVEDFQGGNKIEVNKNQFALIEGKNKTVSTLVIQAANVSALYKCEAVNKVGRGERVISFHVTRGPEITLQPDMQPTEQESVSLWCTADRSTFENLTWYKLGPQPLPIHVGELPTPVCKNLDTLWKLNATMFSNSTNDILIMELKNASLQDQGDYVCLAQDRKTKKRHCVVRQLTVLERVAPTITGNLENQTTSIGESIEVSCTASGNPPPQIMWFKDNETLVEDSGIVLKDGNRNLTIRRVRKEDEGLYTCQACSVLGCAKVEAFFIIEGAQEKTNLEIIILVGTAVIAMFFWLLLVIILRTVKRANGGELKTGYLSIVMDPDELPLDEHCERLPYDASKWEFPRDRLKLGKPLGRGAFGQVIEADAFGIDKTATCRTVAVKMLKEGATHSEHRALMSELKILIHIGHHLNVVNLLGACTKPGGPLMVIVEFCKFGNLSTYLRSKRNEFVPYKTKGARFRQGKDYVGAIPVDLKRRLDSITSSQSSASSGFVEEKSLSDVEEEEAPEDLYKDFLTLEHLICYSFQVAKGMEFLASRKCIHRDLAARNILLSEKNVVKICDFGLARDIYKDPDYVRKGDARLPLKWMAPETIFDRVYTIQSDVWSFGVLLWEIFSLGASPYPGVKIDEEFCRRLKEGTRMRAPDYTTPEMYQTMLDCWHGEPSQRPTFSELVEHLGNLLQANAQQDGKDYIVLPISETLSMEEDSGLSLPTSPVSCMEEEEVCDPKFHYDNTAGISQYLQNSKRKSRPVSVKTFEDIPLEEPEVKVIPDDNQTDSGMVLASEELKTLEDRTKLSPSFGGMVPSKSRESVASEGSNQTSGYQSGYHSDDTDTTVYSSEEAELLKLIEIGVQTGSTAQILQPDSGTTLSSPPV
ALK-1, sequence (P37023 22-503, species assumed): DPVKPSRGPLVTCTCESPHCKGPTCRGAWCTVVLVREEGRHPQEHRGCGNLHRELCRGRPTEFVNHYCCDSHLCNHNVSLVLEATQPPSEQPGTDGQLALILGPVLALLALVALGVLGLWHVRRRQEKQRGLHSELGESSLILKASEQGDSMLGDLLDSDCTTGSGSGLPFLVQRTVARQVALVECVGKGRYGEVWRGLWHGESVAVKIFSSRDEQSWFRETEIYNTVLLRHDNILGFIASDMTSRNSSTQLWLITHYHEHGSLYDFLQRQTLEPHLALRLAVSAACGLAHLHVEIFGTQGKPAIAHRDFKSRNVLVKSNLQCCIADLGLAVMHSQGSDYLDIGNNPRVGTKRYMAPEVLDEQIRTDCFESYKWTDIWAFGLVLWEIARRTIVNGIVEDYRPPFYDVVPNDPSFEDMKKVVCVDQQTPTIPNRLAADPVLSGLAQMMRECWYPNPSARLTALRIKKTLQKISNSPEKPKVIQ
ALK-3, sequence (P36894 24-532, species assumed): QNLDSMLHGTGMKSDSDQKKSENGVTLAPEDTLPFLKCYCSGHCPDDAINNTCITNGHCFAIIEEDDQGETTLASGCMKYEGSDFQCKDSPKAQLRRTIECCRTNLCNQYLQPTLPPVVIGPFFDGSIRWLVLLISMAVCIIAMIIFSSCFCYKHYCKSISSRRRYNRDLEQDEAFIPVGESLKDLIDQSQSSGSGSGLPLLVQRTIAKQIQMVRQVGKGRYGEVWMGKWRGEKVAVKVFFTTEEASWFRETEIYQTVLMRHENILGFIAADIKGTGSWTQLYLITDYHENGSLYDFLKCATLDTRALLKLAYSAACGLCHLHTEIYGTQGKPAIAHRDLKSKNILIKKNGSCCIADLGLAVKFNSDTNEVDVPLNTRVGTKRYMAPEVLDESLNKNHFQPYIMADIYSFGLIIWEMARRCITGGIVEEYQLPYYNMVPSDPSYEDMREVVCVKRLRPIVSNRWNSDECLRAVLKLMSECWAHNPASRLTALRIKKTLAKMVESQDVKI

For `Cc1cc(-c2ccc(CC(=O)Nc3ccc(-c4cccnc4)cc3)cc2)ccn1` [Wnt-059, 4-(2-Methyl-4-pyridinyl)-N-[4-(3-pyridinyl)phenyl]benzeneacetamide], the IC50 [1] is listed as 0.074 nM.
In the case of `Cc1c[nH]c(-c2cnc(NCCNc3ccc(C#N)cn3)nc2-c2ccc(Cl)cc2Cl)n1` [CHIR99021, 6-(2-(4-(2,4-dichlorophenyl)-5-(4-methyl-1H-imidazol-2-yl)pyrimidin-2-ylamino)ethylamino) nicotinonitrile], the “IC50 values against rodent GSK3-β homologs” value [2] is listed as “nanomolar”.
For `CC(C)Oc1ccc(-c2cnc3c(-c4ccnc5ccccc45)cnn3c2)cc1` [DMH-1, 4-[6-[4-(1-Methylethoxy)phenyl]pyrazolo[1,5-a]pyrimidin-3-yl]-quinoline], the “BMP4-induced phosphorylation of Smads 1, 5 and 8” value [3] is given as “Blocks”, the “inhibition of KDR (VEGFR-2)” value [4] is given as “no significant inhibition” and the “inhibition of AMPK” value [5] is given as “no significant inhibition”. The “selectivity for ALK-2 over ALK-1” value [6] was 6 fold, the “selectivity for ALK-2 over ALK-3” value [7] was 19 fold and the “inhibition of ALK5” value [8] was “no significant inhibition”. The “inhibition of PDGFRβ” value [9] was “no significant inhibition”.
